# From paper PMC8708872, “Discovery of a Novel Template, 7-Substituted 7-Deaza-4′-Thioadenosine Derivatives as Multi-Kinase Inhibitors” (Pharmaceuticals, 2021)
# Experiments:
# Assay type in all cases: binding
# Kinome scan = conditions: 1000 nM, ZAP70 (Entrez gene symbol printed STK32C)
# Description: (§1) The kinome scan assays were carried out at Eurofins DiscoverX Corporation. For kinome scan profiling of compound 1g, it was screened at 1μM against 96 kinases (N = 2 independent experiments). The results for binding interactions are reported as % inhibition, where higher values indicate strong affinity; see the Supporting Information, Table S1 for full kinome profile.
# [1] = molecular target: T1, ABL1(E255K)-phosphorylated (Homo sapiens, UniProt P00519, E255K); experiment: Kinome scan; conditions: 1000 nM
# T1 construct: purchased Eurofins DiscoverX Corporation
# Description: as §1
# ABL1-nonphosphorylated = molecular target: T2, ABL1-nonphosphorylated (Homo sapiens, UniProt P00519); experiment: Kinome scan; conditions: 1000 nM
# T2 construct: purchased Eurofins DiscoverX Corporation
# Description: as §1
# ABL1-phosphorylated = molecular target: T3, ABL1-phosphorylated (Homo sapiens, UniProt P00519); experiment: Kinome scan; conditions: 1000 nM
# T3 construct: purchased Eurofins DiscoverX Corporation
# Description: as §1
# ACVR1B = molecular target: T4, ACVR1B (Homo sapiens, UniProt P36896); experiment: Kinome scan; conditions: 1000 nM
# T4 construct: purchased Eurofins DiscoverX Corporation
# Description: as §1
# AKT1 = molecular target: T5, AKT1 (Homo sapiens, UniProt P31749); experiment: Kinome scan; conditions: 1000 nM
# T5 construct: purchased Eurofins DiscoverX Corporation
# Description: as §1
# AXL = molecular target: T6, AXL (Homo sapiens, UniProt P30530); experiment: Kinome scan; conditions: 1000 nM
# T6 construct: purchased Eurofins DiscoverX Corporation
# Description: as §1
# BRAF = molecular target: T7, BRAF (Homo sapiens, UniProt P15056); experiment: Kinome scan; conditions: 1000 nM
# T7 construct: purchased Eurofins DiscoverX Corporation
# Description: as §1
# DCAMKL1 = molecular target: T8, DCAMKL1 (Homo sapiens, UniProt O15075); experiment: Kinome scan; conditions: 1000 nM
# T8 construct: purchased Eurofins DiscoverX Corporation
# Description: as §1
# EGFR = molecular target: T9, EGFR (Homo sapiens, UniProt P00533); experiment: Kinome scan; conditions: 1000 nM
# T9 construct: purchased Eurofins DiscoverX Corporation
# Description: as §1
# EPHA2 = molecular target: T10, EPHA2 (Homo sapiens, UniProt P29317); experiment: Kinome scan; conditions: 1000 nM
# T10 construct: purchased Eurofins DiscoverX Corporation
# Description: as §1
# ERK1 = molecular target: T11, ERK1 (Homo sapiens, UniProt P27361); experiment: Kinome scan; conditions: 1000 nM
# T11 construct: purchased Eurofins DiscoverX Corporation
# Description: as §1
# FAK = molecular target: T12, FAK (Homo sapiens, UniProt Q05397); experiment: Kinome scan; conditions: 1000 nM
# T12 construct: purchased Eurofins DiscoverX Corporation
# Description: as §1
# FGFR3 = molecular target: T13, FGFR3 (Homo sapiens, UniProt P22607); experiment: Kinome scan; conditions: 1000 nM
# T13 construct: purchased Eurofins DiscoverX Corporation
# Description: as §1
# FLT3 = molecular target: T14, FLT3 (Homo sapiens, UniProt P36888); experiment: Kinome scan; conditions: 1000 nM
# T14 construct: purchased Eurofins DiscoverX Corporation
# Description: as §1
# IKK-alpha = molecular target: T15, IKK-alpha (Homo sapiens, UniProt O15111); experiment: Kinome scan; conditions: 1000 nM
# T15 construct: purchased Eurofins DiscoverX Corporation
# Description: as §1
# IKK-beta = molecular target: T16, IKK-beta (Homo sapiens, UniProt O14920); experiment: Kinome scan; conditions: 1000 nM
# T16 construct: purchased Eurofins DiscoverX Corporation
# Description: as §1
# JNK2 = molecular target: T17, JNK2 (Homo sapiens, UniProt P45984); experiment: Kinome scan; conditions: 1000 nM
# T17 construct: purchased Eurofins DiscoverX Corporation
# Description: as §1
# JNK3 = molecular target: T18, JNK3 (Homo sapiens, UniProt P53779); experiment: Kinome scan; conditions: 1000 nM
# T18 construct: purchased Eurofins DiscoverX Corporation
# Description: as §1
# KIT = molecular target: T19, KIT (Homo sapiens, UniProt P10721); experiment: Kinome scan; conditions: 1000 nM
# T19 construct: purchased Eurofins DiscoverX Corporation
# Description: as §1
# KIT(V559D,T670I) = molecular target: T20, KIT(V559D,T670I) (Homo sapiens, UniProt P10721, T670I/V559D); experiment: Kinome scan; conditions: 1000 nM
# T20 construct: purchased Eurofins DiscoverX Corporation
# Description: as §1
# LKB1 = molecular target: T21, LKB1 (Homo sapiens, UniProt Q15831); experiment: Kinome scan; conditions: 1000 nM
# T21 construct: purchased Eurofins DiscoverX Corporation
# Description: as §1
# MAPKAPK2 = molecular target: T22, MAPKAPK2 (Homo sapiens, UniProt P49137); experiment: Kinome scan; conditions: 1000 nM
# T22 construct: purchased Eurofins DiscoverX Corporation
# Description: as §1
# MEK1 = molecular target: T23, MEK1 (Homo sapiens, UniProt Q02750); experiment: Kinome scan; conditions: 1000 nM
# T23 construct: purchased Eurofins DiscoverX Corporation
# Description: as §1
# MEK2 = molecular target: T24, MEK2 (Homo sapiens, UniProt P36507); experiment: Kinome scan; conditions: 1000 nM
# T24 construct: purchased Eurofins DiscoverX Corporation
# Description: as §1
# MKNK1 = molecular target: T25, MKNK1 (Homo sapiens, UniProt Q9BUB5); experiment: Kinome scan; conditions: 1000 nM
# T25 construct: purchased Eurofins DiscoverX Corporation
# Description: as §1
# MLK1 = molecular target: T26, MLK1 (Homo sapiens, UniProt P80192); experiment: Kinome scan; conditions: 1000 nM
# T26 construct: purchased Eurofins DiscoverX Corporation
# Description: as §1
# PAK1 = molecular target: T27, PAK1 (Homo sapiens, UniProt Q13153); experiment: Kinome scan; conditions: 1000 nM
# T27 construct: purchased Eurofins DiscoverX Corporation
# Description: as §1
# PAK4 = molecular target: T28, PAK4 (Homo sapiens, UniProt O96013); experiment: Kinome scan; conditions: 1000 nM
# T28 construct: purchased Eurofins DiscoverX Corporation
# Description: as §1
# PDPK1 = molecular target: T29, PDPK1 (Homo sapiens, UniProt O15530); experiment: Kinome scan; conditions: 1000 nM
# T29 construct: purchased Eurofins DiscoverX Corporation
# Description: as §1
# PIK3CA = molecular target: T30, PIK3CA (Homo sapiens, UniProt P42336); experiment: Kinome scan; conditions: 1000 nM
# T30 construct: purchased Eurofins DiscoverX Corporation
# Description: as §1
# PIK3CG = molecular target: T31, PIK3CG (Homo sapiens, UniProt P48736); experiment: Kinome scan; conditions: 1000 nM
# T31 construct: purchased Eurofins DiscoverX Corporation
# Description: as §1
# PIM1 = molecular target: T32, PIM1 (Homo sapiens, UniProt P11309); experiment: Kinome scan; conditions: 1000 nM
# T32 construct: purchased Eurofins DiscoverX Corporation
# Description: as §1
# PIM2 = molecular target: T33, PIM2 (Homo sapiens, UniProt Q9P1W9); experiment: Kinome scan; conditions: 1000 nM
# T33 construct: purchased Eurofins DiscoverX Corporation
# Description: as §1
# PKAC-alpha = molecular target: T34, PKAC-alpha (Homo sapiens, UniProt P17612); experiment: Kinome scan; conditions: 1000 nM
# T34 construct: purchased Eurofins DiscoverX Corporation
# Description: as §1
# PLK3 = molecular target: T35, PLK3 (Homo sapiens, UniProt Q9H4B4); experiment: Kinome scan; conditions: 1000 nM
# T35 construct: purchased Eurofins DiscoverX Corporation
# Description: as §1
# PRKCE = molecular target: T36, PRKCE (Homo sapiens, UniProt Q02156); experiment: Kinome scan; conditions: 1000 nM
# T36 construct: purchased Eurofins DiscoverX Corporation
# Description: as §1
# RAF1 = molecular target: T37, RAF1 (Homo sapiens, UniProt P04049); experiment: Kinome scan; conditions: 1000 nM
# T37 construct: purchased Eurofins DiscoverX Corporation
# Description: as §1
# RET = molecular target: T38, RET (Homo sapiens, UniProt P07949); experiment: Kinome scan; conditions: 1000 nM
# T38 construct: purchased Eurofins DiscoverX Corporation
# Description: as §1
# SRPK3 = molecular target: T39, SRPK3 (Homo sapiens, UniProt Q9UPE1); experiment: Kinome scan; conditions: 1000 nM
# T39 construct: purchased Eurofins DiscoverX Corporation
# Description: as §1
# TRKA (NTRK1) = molecular target: T40, TRKA (NTRK1) (Homo sapiens, UniProt P04629); experiment: Kinome scan
# T40 construct: purchased Eurofins DiscoverX Corporation
# Description: as §1
# VEGFR2 = molecular target: T41, VEGFR2 (Homo sapiens, UniProt P35968); experiment: Kinome scan; conditions: 1000 nM
# T41 construct: purchased Eurofins DiscoverX Corporation
# Description: as §1
# p38-alpha = molecular target: T42, p38-alpha (Homo sapiens, UniProt Q16539); experiment: Kinome scan; conditions: 1000 nM
# T42 construct: purchased Eurofins DiscoverX Corporation
# Description: as §1
# T40 sequence (P04629 33-796): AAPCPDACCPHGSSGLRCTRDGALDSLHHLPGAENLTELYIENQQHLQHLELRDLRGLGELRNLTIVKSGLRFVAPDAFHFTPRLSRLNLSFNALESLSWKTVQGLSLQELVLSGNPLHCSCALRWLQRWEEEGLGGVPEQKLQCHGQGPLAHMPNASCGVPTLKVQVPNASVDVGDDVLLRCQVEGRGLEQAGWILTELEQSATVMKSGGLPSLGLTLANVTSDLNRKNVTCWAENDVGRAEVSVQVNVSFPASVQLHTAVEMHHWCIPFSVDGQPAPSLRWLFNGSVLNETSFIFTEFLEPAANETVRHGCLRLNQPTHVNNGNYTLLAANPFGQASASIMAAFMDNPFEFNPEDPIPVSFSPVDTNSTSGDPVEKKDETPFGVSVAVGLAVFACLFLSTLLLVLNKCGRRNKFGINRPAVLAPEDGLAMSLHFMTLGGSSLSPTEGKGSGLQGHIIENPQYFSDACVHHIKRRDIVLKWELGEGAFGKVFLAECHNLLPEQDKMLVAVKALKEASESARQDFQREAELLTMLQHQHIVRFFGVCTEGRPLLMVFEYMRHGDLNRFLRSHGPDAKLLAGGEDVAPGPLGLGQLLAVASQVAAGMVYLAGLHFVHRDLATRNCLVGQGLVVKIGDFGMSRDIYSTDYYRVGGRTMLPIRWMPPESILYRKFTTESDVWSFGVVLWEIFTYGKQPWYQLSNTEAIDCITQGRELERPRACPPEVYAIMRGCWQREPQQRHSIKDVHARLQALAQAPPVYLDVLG
# T19 sequence (P10721 26-976): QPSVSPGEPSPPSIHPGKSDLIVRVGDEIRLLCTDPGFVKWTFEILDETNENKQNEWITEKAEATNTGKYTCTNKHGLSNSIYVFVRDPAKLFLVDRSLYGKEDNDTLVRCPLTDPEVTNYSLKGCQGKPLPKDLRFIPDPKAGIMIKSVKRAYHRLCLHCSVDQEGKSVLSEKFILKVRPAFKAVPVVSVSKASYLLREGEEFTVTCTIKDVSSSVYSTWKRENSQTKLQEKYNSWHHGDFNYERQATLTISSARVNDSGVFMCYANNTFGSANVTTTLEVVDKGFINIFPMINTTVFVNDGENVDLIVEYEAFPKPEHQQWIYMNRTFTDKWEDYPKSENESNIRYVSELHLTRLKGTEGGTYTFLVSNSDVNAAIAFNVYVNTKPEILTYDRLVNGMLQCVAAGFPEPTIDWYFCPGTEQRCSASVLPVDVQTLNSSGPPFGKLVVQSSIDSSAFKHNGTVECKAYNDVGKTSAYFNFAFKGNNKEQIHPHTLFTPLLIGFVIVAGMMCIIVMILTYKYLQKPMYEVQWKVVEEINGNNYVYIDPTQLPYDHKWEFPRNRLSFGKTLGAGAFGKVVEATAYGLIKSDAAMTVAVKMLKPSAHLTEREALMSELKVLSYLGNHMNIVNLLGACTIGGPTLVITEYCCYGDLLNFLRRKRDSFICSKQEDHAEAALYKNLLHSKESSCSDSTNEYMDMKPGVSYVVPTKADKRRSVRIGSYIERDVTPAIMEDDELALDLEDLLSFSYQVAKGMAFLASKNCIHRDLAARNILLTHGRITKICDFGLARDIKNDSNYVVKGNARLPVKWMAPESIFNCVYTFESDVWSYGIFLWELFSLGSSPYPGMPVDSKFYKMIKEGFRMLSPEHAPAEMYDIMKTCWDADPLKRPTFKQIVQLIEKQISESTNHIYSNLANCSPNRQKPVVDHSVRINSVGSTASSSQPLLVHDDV
# T10 sequence (P29317 24-976): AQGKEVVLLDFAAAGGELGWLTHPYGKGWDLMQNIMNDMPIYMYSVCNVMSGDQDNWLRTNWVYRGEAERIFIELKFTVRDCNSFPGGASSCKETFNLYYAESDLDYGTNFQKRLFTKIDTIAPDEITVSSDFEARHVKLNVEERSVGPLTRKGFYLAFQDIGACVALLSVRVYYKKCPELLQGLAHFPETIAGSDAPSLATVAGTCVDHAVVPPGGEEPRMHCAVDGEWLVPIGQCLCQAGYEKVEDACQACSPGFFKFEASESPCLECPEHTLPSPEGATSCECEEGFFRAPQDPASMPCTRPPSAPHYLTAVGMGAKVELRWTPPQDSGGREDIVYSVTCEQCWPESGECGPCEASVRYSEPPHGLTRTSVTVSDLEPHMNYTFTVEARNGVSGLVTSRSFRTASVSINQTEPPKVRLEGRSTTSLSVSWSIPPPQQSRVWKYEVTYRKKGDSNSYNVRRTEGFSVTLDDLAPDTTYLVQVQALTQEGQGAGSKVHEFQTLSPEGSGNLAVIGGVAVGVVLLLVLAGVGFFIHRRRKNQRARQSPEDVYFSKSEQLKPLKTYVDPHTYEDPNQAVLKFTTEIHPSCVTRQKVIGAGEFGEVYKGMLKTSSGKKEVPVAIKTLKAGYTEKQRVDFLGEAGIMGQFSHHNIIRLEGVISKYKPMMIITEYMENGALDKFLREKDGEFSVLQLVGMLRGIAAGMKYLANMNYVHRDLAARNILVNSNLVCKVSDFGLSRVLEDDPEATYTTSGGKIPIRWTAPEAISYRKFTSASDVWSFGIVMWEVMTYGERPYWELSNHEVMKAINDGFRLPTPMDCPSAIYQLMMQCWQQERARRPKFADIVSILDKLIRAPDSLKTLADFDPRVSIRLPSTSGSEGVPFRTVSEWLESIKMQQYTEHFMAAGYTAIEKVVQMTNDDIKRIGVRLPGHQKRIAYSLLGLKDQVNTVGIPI
# T41 sequence (P35968 20-1356): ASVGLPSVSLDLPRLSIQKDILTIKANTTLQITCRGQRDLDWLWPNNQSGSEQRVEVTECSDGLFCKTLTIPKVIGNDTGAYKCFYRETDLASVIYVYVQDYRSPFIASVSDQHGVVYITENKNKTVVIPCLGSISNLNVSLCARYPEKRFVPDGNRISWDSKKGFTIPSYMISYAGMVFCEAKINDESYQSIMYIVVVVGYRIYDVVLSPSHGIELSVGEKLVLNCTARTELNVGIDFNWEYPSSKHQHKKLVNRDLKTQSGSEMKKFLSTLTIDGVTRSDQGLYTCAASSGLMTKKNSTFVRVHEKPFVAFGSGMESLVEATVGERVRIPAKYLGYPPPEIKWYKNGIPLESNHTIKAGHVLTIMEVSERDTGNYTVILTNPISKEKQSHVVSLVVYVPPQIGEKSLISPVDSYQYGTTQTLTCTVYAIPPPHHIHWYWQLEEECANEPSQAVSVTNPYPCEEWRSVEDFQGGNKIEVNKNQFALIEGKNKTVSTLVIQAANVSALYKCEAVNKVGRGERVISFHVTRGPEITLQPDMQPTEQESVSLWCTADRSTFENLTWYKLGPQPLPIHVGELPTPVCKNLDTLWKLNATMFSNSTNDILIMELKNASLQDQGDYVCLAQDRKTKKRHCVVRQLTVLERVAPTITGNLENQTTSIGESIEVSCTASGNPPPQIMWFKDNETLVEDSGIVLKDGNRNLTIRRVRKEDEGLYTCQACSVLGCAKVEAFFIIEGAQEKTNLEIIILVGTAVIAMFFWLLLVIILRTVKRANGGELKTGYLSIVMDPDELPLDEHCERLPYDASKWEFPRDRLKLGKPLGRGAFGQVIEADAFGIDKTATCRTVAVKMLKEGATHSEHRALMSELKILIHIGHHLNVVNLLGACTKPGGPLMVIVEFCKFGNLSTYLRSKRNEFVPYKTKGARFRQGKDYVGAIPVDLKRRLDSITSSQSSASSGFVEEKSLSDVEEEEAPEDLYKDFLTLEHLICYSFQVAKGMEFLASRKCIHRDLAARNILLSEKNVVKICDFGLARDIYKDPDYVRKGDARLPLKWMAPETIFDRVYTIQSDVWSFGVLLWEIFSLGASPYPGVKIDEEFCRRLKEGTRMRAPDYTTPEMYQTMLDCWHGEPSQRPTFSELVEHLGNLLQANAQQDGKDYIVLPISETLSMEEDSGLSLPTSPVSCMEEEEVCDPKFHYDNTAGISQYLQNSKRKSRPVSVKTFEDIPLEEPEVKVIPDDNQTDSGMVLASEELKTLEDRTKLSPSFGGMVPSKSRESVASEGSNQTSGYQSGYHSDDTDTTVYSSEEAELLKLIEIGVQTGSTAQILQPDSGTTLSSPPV
# T39 sequence (Q9UPE1 whole entry): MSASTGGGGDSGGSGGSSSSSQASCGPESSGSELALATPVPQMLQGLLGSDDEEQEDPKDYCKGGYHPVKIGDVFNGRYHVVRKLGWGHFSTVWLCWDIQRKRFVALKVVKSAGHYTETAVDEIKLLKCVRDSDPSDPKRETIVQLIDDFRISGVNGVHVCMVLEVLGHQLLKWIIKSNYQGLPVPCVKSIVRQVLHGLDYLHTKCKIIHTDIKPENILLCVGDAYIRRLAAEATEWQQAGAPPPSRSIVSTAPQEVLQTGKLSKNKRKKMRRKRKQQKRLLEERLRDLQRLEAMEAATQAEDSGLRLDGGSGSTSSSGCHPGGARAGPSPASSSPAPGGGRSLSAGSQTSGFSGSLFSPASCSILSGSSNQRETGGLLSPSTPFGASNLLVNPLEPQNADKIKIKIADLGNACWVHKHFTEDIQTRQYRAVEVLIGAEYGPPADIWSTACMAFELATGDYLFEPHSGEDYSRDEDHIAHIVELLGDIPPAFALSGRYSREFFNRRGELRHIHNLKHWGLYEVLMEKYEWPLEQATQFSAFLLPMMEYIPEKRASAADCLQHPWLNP
# T42 sequence (Q16539 whole entry): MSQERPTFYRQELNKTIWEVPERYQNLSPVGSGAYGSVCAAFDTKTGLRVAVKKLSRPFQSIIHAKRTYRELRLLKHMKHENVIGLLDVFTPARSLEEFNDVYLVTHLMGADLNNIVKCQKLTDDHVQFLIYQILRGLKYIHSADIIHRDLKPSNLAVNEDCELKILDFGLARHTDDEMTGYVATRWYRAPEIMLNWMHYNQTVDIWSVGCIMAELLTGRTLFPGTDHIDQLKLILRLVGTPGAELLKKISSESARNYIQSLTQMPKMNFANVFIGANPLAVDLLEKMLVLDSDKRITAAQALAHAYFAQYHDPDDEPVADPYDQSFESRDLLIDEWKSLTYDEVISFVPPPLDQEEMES
# T20 sequence (P10721 26-976 V559D/T670I): as the sequence (P10721 26-976) above, with V534D, T645I counted along it
smiles,measurement,setting,value
"C#Cc1cn([C@@H]2S[C@H](CO)[C@@H](O)[C@H]2O)c2ncnc(N)c12 [Compound 1g, (2R,3R,4S,5R)-2-(4-Amino-5-ethynyl-7H-pyrrolo[2,3-d]pyrimidin-7-yl)-5-(hydroxymethyl)tetrahydrothiophene-3,4-diol]",% inhibition,Kinome scan,0.0%
same,inhibition at 1 µM,[1],18%
same,inhibition at 1 µM,ABL1-nonphosphorylated,39%
same,inhibition at 1 µM,ABL1-phosphorylated,35%
same,inhibition at 1 µM,ACVR1B,29%
same,inhibition at 1 µM,AKT1,7%
same,inhibition at 1 µM,AXL,7%
same,inhibition at 1 µM,BRAF,0%
same,inhibition at 1 µM,DCAMKL1,6%
same,inhibition at 1 µM,EGFR,0%
same,inhibition at 1 µM,EPHA2,28%
same,inhibition at 1 µM,ERK1,4%
same,inhibition at 1 µM,FAK,0%
same,inhibition at 1 µM,FGFR3,10%
same,inhibition at 1 µM,FLT3,27%
same,inhibition at 1 µM,IKK-alpha,10%
same,inhibition at 1 µM,IKK-beta,0%
same,inhibition at 1 µM,JNK2,0%
same,inhibition at 1 µM,JNK3,13%
same,inhibition at 1 µM,KIT,1%
same,inhibition at 1 µM,"KIT(V559D,T670I)",17%
same,inhibition at 1 µM,LKB1,2%
same,inhibition at 1 µM,MAPKAPK2,0%
same,inhibition at 1 µM,MEK1,74%
same,inhibition at 1 µM,MEK2,69%
same,inhibition at 1 µM,MKNK1,0%
same,inhibition at 1 µM,MLK1,7%
same,inhibition at 1 µM,PAK1,18%
same,inhibition at 1 µM,PAK4,50%
same,inhibition at 1 µM,PDPK1,11%
same,inhibition at 1 µM,PIK3CA,7%
same,inhibition at 1 µM,PIK3CG,0%
same,inhibition at 1 µM,PIM1,37%
same,inhibition at 1 µM,PIM2,3%
same,inhibition at 1 µM,PKAC-alpha,11%
same,inhibition at 1 µM,PLK3,0%
same,inhibition at 1 µM,PRKCE,0%
same,inhibition at 1 µM,RAF1,8%
same,inhibition at 1 µM,RET,11%
same,inhibition at 1 µM,SRPK3,6%
same,remaining binding at 1 µM,TRKA (NTRK1); 1 μM,< 20%
same,inhibition at 1 µM,"TRKA (NTRK1); 1000 nM, TRKA (NTRK1)",95.1%
same,inhibition at 1 µM,VEGFR2,30%
same,inhibition at 1 µM,p38-alpha,11%
